Source: ChEMBL document CHEMBL1133821, “Synthesis and antiinflammatory, analgesic activity of 3,3'-(1,2-ethanediyl)-bis[2-aryl-4-thiazolidinone] chiral compounds. Part 10” (Bioorg Med Chem Lett, 2001)

Tests used:
Rattus norvegicus [1] = assay: Animals with Ulcers in Carrageenan-induced paw edema test at a dose of 100 mg/kg perorally in rats; format: functional; conditions: route oral
Rattus norvegicus [2] = assay: Analgesic activity was determined using acetic acid writing test at a dose of 100 mg/kg perorally in rats. (p<0.01); format: functional; conditions: route oral
Rattus norvegicus [3] = assay: Percent Edema variation in Carrageenan-induced paw edema test at a dose of 100 mg/kg perorally in rats after 120 min; format: functional; conditions: route oral
Rattus norvegicus [4] = assay: Number of writhings in Acetic acid Writhing test at a dose of 100 mg/kg perorally in rats(p<0.05); format: functional; conditions: route oral
Rattus norvegicus [5] = assay: Animals with Hyperemia in Carrageenan-induced paw edema test at a dose of 100 mg/kg perorally in rats; format: functional; conditions: route oral
Rattus norvegicus [6] = assay: Reaction time in Hot plate test at a dose of 100 mg/kg perorally in rats after 60 min (p<0.05); format: functional; conditions: route oral
[7] = Peroral dose causing 50% death of the mice population; format: ADME, organism-based; conditions: mouse, in vivo, po
Rattus norvegicus [8] = assay: Reaction time in Hot plate test at a dose of 100 mg/kg perorally in rats after 120 min; format: functional; conditions: route oral
Rattus norvegicus [9] = assay: Percent Edema variation in Carrageenan-induced paw edema test at a dose of 100 mg/kg perorally in rats after 180 min (p<0.01); format: functional; conditions: route oral
Rattus norvegicus [10] = assay: Reaction time in Hot plate test at a dose of 100 mg/kg perorally in rats after 180 min; format: functional; conditions: route oral
Rattus norvegicus [11] = assay: Percent Edema variation in Carrageenan-induced paw edema test at a dose of 100 mg/kg perorally in rats after 60 min; format: functional; conditions: route oral
[12] = Minimum concentration which causes 50% of the Artemia salina larvae to lose mobility; format: ADME, organism-based; conditions: in vivo
Rattus norvegicus [13] = assay: Number of writhings in Acetic acid Writhing test at a dose of 100 mg/kg perorally in rats; format: functional; conditions: route oral
Rattus norvegicus [14] = assay: Percent Edema variation in Carrageenan-induced paw edema test at a dose of 100 mg/kg perorally in rats after 60 min (p<0.001); format: functional; conditions: route oral
Rattus norvegicus [15] = assay: Reaction time in Hot plate test at a dose of 100 mg/kg perorally in rats after 60 min; format: functional; conditions: route oral
Rattus norvegicus [16] = assay: Percent Edema variation in Carrageenan-induced paw edema test at a dose of 50 mg/kg perorally in rats after 180 min; format: functional; conditions: route oral
Rattus norvegicus [17] = assay: Percent Edema variation in Carrageenan-induced paw edema test at a dose of 50 mg/kg perorally in rats after 120 min; format: functional; conditions: route oral
Rattus norvegicus [18] = assay: Percent Edema variation in Carrageenan-induced paw edema test at a dose of 100 mg/kg perorally in rats after 180 min; format: functional; conditions: route oral
Rattus norvegicus [19] = assay: Analgesic activity was determined using acetic acid writing test at a dose of 100 mg/kg perorally in rats.; format: functional; conditions: route oral
Rattus norvegicus [20] = assay: (§1) Animals with Ulcers in Carrageenan-induced paw edema test at a dose of 50 mg/kg perorally in rats; format: functional; conditions: route oral
Rattus norvegicus [21] = assay: Percent Edema variation in Carrageenan-induced paw edema test at a dose of 50 mg/kg perorally in rats after 60 min (p<0.01); format: functional; conditions: route oral
Rattus norvegicus [22] = assay: (§2) Animals with Hyperemia in Carrageenan-induced paw edema test at a dose of 50 mg/kg perorally in rats; format: functional; conditions: route oral
[23] = (§3) Percent Edema variation in Carrageenan-induced paw edema test at a dose of 50 mg/kg perorally in rats after 60 min; format: functional; conditions: route oral
Rattus norvegicus [24] = assay: Analgesic activity was determined using acetic acid writing test at a dose of 100 mg/kg perorally in rats.(p<0.05); format: functional; conditions: route oral
[25] = Percent Edema variation in Carrageenan-induced paw edema test at a dose of 50 mg/kg perorally in rats after 180 min (p<0.001); format: functional; conditions: route oral
Rattus norvegicus [26] = assay: Percent Edema variation in Carrageenan-induced paw edema test at a dose of 100 mg/kg perorally in rats after 120 min (p<0.001); format: functional; conditions: route oral
[27] = as §1; format: functional; conditions: route oral
Rattus norvegicus [28] = assay: Percent Edema variation in Carrageenan-induced paw edema test at a dose of 100 mg/kg perorally in rats after 180 min (p<0.001); format: functional; conditions: route oral
[29] = as §2; format: functional; conditions: route oral
[30] = Percent Edema variation in Carrageenan-induced paw edema test at a dose of 50 mg/kg perorally in rats after 120 min (p<0.01); format: functional; conditions: route oral
Rattus norvegicus [31] = assay: Reaction time in Hot plate test at a dose of 50 mg/kg perorally in rats after 180 min (p<0.01); format: functional; conditions: route oral
Rattus norvegicus [32] = assay: as §3; format: functional; conditions: route oral
Rattus norvegicus [33] = assay: Percent Edema variation in Carrageenan-induced paw edema test at a dose of 50 mg/kg perorally in rats after 180 min (p<0.01); format: functional; conditions: route oral
Rattus norvegicus [34] = assay: Reaction time in Hot plate test at a dose of 50 mg/kg perorally in rats after 120 min (p<0.01); format: functional; conditions: route oral
Rattus norvegicus [35] = assay: Number of writhings in Acetic acid Writhing test at a dose of 50 mg/kg perorally in rats; format: functional; conditions: route oral
Rattus norvegicus [36] = assay: Reaction time in Hot plate test at a dose of 50 mg/kg perorally in rats after 60 min (p<0.01); format: functional; conditions: route oral
Rattus norvegicus [37] = assay: Analgesic activity was determined using acetic acid writing test at a dose of 50 mg/kg perorally in rats. (p<0.01); format: functional; conditions: route oral

Compound	Animals (Rattus norvegicus [1]) [%]	Edema variation (Rattus norvegicus [3]) [%]	Animals (Rattus norvegicus [5]) [%]	Reaction time (Rattus norvegicus [6]) [s]	LD50 [7] [mg/kg]	Reaction time (Rattus norvegicus [8]) [s]	Reaction time (Rattus norvegicus [10]) [s]	Edema variation (Rattus norvegicus [11]) [%]	LC50 [12] [µg/mL]	No. of writhings (Rattus norvegicus [13])	Edema variation (Rattus norvegicus [17]) [%]	Animals (Rattus norvegicus [20]) [%]	also measured
Cc1cccc([C@H]2SCC(=O)N2CCN2C(=O)CS[C@H]2c2cccc(C)c2)c1	20	-13.05	80	18.4	> 1000	11.1	11	25.6	> 1000				inhibition in vivo at 100 mg/kg (Rattus norvegicus [2]): 64%; No. of writhings (Rattus norvegicus [4]): 7.3; Edema variation (Rattus norvegicus [9]): -55.81%
COc1cccc([C@H]2SCC(=O)N2CCN2C(=O)CS[C@H]2c2cccc(OC)c2)c1	0	-12.7	20		> 1000	12	10.7		> 1000	8.1	-8.15	0	Edema variation (Rattus norvegicus [14]): -65.3%; Reaction time (Rattus norvegicus [15]): 12.1 s; Edema variation (Rattus norvegicus [16]): 29.59%; Edema variation (Rattus norvegicus [18]): 20.1%; inhibition in vivo at 100 mg/kg (Rattus norvegicus [19]): 60%; Edema variation (Rattus norvegicus [21]): -38.29%; Animals (Rattus norvegicus [22]): 20%
COc1ccc([C@H]2SCC(=O)N2CCN2C(=O)CS[C@H]2c2ccc(OC)cc2)cc1	0		40	17	> 1000	15.6	15	20.23	> 1000	11.3			Edema variation [23]: 14.08%; inhibition in vivo at 100 mg/kg (Rattus norvegicus [24]): 44%; Edema variation [25]: -66.97%; Edema variation (Rattus norvegicus [26]): -75.9%; Animals [27]: 0%; Edema variation (Rattus norvegicus [28]): -96.42%; Animals [29]: 20%; Edema variation [30]: -49%
CCCCC1C(=O)N(c2ccccc2)N(c2ccccc2)C1=O [PHENYLBUTAZONE]			100		300						-5.25	80	Reaction time (Rattus norvegicus [31]): 31.7 s; Edema variation (Rattus norvegicus [32]): -20.27%; Edema variation (Rattus norvegicus [33]): -39.02%; Reaction time (Rattus norvegicus [34]): 30 s; No. of writhings (Rattus norvegicus [35]): 3.6; Reaction time (Rattus norvegicus [36]): 28.3 s; inhibition in vivo at 50 mg/kg (Rattus norvegicus [37]): 82%
